Test [1] addresses 5-hydroxytryptamine receptor 2B (Homo sapiens, UniProt P41595). The test can be described thus: Antagonist activity at human 5HT2B receptor expressed in human SH-SY5Y cells by FLIPR assay.
Another test has as its target Histamine H1 receptor (Homo sapiens, UniProt P35367). The test can be described thus: Antagonist activity against human histamine H1 receptor expressed in CHO cells by FLIPR assay. The test is classed as functional, cell-based.
The target of test [2] is Voltage-gated inwardly rectifying potassium channel KCNH2 (Homo sapiens, UniProt Q12809). Briefly: Displacement of [3H]dofetilide from human ERG by scintillation proximity assay.
Test [3] deals with T1, 5-hydroxytryptamine receptor 2C (Homo sapiens, UniProt P28335).
T1 sequence (P28335 whole entry): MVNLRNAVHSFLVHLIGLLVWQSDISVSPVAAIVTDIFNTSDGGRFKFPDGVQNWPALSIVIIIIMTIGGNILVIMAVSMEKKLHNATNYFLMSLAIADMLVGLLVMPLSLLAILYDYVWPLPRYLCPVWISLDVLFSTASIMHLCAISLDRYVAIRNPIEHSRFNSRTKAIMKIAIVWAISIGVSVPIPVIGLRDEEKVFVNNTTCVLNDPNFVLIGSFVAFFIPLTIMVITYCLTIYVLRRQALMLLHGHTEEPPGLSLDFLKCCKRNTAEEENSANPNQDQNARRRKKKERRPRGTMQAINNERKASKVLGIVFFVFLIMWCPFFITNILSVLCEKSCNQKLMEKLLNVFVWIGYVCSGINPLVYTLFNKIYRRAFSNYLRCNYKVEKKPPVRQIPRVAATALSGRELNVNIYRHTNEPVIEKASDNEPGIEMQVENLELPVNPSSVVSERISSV
Briefly: Antagonist activity at human 5HT2C receptor expressed in human SH-SY5Y cells by FLIPR assay. The test is classed as functional, cell-based.

In test [4] the target is 5-hydroxytryptamine receptor 2A (Homo sapiens, UniProt P28223). Briefly: Antagonist activity at human 5HT2A receptor expressed in HEK cells assessed as inhibition of intracellular calcium accumulation by aequorin assay. The class given is functional, cell-based, HEK293. For orientation: Calcium assays in cells follow changes in intracellular calcium, usually with a dye or a luminescent sensor.

From ChEMBL document CHEMBL1275351, “Novel spirotetracyclic zwitterionic dual H(1)/5-HT(2A) receptor antagonists for the treatment of sleep disorders” (J Med Chem, 2010) come the findings set out here.

A word on the Ki: it is the equilibrium dissociation constant of an inhibitor or competing ligand from its target. Broadly, the IC50 is the concentration needed to halve the response being measured. Higher therefore signals lower potency.

Sequence of Histamine H1 receptor (P35367 whole entry): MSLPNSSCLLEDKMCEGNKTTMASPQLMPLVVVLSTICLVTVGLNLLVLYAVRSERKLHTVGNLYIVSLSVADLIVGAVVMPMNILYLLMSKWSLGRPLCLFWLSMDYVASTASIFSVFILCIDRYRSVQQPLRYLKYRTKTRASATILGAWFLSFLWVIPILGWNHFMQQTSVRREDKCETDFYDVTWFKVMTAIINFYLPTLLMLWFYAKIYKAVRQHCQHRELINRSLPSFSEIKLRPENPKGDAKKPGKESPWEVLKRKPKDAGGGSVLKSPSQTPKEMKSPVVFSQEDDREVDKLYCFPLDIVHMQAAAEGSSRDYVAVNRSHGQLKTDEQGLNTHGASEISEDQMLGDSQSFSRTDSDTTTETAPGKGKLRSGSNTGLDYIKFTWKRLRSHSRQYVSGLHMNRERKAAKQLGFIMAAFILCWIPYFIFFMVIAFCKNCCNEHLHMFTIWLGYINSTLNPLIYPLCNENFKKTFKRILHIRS
Sequence of 5-hydroxytryptamine receptor 2A (P28223 whole entry): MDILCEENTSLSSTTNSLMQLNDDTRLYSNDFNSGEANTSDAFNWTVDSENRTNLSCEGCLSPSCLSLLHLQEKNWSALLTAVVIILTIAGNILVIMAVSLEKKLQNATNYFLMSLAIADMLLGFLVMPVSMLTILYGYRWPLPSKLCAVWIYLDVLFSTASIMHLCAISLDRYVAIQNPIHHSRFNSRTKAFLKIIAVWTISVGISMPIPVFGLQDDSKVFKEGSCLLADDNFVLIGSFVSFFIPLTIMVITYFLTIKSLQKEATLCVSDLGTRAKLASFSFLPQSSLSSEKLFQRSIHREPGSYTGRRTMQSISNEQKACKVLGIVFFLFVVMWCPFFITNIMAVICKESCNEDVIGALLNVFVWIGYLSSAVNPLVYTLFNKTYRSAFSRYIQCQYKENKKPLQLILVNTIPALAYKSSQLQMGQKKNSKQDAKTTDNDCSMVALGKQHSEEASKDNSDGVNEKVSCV
Sequence of 5-hydroxytryptamine receptor 2B (P41595 whole entry): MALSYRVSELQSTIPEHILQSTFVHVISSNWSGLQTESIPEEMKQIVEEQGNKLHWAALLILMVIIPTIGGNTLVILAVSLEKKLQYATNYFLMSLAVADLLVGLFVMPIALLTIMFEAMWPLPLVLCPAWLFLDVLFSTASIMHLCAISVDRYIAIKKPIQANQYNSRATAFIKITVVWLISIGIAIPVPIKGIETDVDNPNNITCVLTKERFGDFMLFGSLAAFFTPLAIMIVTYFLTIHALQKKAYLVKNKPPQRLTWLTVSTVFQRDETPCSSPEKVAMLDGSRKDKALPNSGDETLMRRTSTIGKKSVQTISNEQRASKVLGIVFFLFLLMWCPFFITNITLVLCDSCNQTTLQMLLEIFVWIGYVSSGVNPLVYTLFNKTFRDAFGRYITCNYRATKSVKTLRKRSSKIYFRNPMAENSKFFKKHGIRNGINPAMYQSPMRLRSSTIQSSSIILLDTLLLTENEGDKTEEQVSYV
Sequence of Voltage-gated inwardly rectifying potassium channel KCNH2 (Q12809 whole entry): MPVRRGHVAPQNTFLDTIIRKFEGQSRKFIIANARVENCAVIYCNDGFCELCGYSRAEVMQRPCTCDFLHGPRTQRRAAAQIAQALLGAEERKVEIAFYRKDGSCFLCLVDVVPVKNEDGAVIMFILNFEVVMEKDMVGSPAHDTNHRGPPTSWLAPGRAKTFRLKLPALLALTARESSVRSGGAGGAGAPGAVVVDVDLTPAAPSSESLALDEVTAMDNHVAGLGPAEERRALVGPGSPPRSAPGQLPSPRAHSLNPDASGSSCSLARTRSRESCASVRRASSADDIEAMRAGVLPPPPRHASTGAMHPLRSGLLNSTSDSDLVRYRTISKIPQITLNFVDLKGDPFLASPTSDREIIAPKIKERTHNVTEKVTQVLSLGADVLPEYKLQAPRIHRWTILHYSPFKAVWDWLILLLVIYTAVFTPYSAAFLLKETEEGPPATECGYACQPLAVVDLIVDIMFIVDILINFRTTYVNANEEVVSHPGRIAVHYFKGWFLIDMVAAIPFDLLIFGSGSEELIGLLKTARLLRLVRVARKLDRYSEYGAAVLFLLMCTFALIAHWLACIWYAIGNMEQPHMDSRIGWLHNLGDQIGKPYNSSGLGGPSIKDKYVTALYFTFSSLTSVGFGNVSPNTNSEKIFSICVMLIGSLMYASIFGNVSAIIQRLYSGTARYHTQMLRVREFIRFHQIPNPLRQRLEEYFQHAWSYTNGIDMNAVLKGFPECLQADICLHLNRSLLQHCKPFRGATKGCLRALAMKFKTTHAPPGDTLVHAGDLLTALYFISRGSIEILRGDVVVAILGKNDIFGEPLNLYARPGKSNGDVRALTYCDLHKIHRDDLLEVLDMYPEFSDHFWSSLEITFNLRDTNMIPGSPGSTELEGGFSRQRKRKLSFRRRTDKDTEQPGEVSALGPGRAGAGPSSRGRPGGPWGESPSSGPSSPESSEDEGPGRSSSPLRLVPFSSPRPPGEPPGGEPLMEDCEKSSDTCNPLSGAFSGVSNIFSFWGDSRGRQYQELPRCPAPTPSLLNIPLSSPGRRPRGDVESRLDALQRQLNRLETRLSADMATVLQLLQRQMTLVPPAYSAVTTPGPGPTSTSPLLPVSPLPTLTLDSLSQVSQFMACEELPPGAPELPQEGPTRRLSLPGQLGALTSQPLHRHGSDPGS

For `O=C(O)CCNC1CC[C@@]2(Cc3ccccc3Cc3ccccc32)C1` (some centres not stated), the inhibition constant (Ki) in test [1] is more than 2000 nM; on Histamine H1 receptor, 25.1 nM; in test [3] it was more than 2000 nM; in test [4], 2000 nM. In test [2], the IC50 is more than 63100 nM.

Consider `CC1(C(=O)O)CCN(C2CC[C@]3(Cc4ccccc4Cc4ccccc43)C2)C1` (some centres not stated), for which the inhibition constant (Ki) is 10 nM in test [1], 12.6 nM at Histamine H1 receptor, 20 nM in test [3] and 12.6 nM in test [4].

For the compound `O=C(O)C1CN(C2CC[C@]3(Cc4ccccc4Cc4ccccc43)C2)CCO1` (some centres not stated), the Ki was more than 2000 nM in test [1], 63.1 nM on Histamine H1 receptor, 316 nM in test [3] and 100 nM in test [4].

`O=C(O)C=C1CN(C2CCC3(Cc4ccccc4Cc4ccccc43)C2)C1` (configuration not stated): the Ki in test [1] was 251 nM; on Histamine H1 receptor, 200 nM; in test [3] it was 251 nM; in test [4] it was 50.1 nM.

For `O=C(O)CC1CN(C2CCC3(Cc4ccccc4Cc4ccccc43)C2)C1` (configuration not stated), the Ki is 39.8 nM in test [1], 316 nM at Histamine H1 receptor, more than 2000 nM in test [3] and 50.1 nM in test [4].

Turning to `CN1CCC(=C2c3ccccc3CC(=O)c3sccc32)CC1` [KETOTIFEN], the inhibition constant (Ki) was 31.6 nM in test [1] and 200 nM in test [3].

Consider `O=C(O)[C@H]1[C@@H]2CN(C3CCC4(Cc5ccccc5Cc5ccccc54)C3)C[C@@H]21` (some centres not stated), for which the Ki is more than 2000 nM in test [1], 39.8 nM on Histamine H1 receptor, more than 2000 nM in test [3] and 631 nM in test [4].

On to `CC1(C(=O)O)CCN(C2CCC3(Cc4ccccc4Cc4ccccc43)C2)CC1` (configuration not stated), for which the Ki is 3.16 nM in test [1], 50.1 nM at Histamine H1 receptor, 15.8 nM in test [3] and 39.8 nM in test [4].

As to `O=C(O)C1(F)CCN(C2CCC3(Cc4ccccc4Oc4ccccc43)C2)CC1` (configuration not stated), the Ki in test [1] is more than 2000 nM; on Histamine H1 receptor, 158 nM; in test [3], more than 2000 nM; in test [4] it was 398 nM.

On to `O=C(O)CC1CCN(C2CC[C@]3(Cc4ccccc4Cc4ccccc43)C2)C1` (some centres not stated), for which the Ki is 1000 nM in test [1], 31.6 nM on Histamine H1 receptor, 20 nM in test [3] and 20 nM in test [4].

Turning to `O=C(O)C1=CCN(C2CCC3(Cc4ccccc4Cc4ccccc43)C2)CC1` (configuration not stated), the Ki in test [1] is more than 2000 nM; at Histamine H1 receptor, 39.8 nM; in test [3], 200 nM; in test [4] it was 79.4 nM.

For `O=C(O)C1CCN(C2CC[C@]3(Cc4ccccc4Cc4ccccc43)C2)C1` (some centres not stated), the inhibitory constant (Ki) in test [1] is 100 nM; on Histamine H1 receptor, 15.8 nM; in test [3] it was 15.8 nM; in test [4], 20 nM.

For `O=C(O)C1=CCCN(C2CCC3(Cc4cc(F)ccc4Cc4ccccc43)C2)C1` (configuration not stated), the inhibition constant Ki is more than 2000 nM in test [1], 39.8 nM at Histamine H1 receptor, 316 nM in test [3] and more than 759 nM in test [4].

For the compound `O=C(O)C1CCN(C2CCC3(Cc4ccccc4Oc4ccccc43)C2)CC1` (configuration not stated), the Ki is 1580 nM in test [1], 79.4 nM on Histamine H1 receptor and 316 nM in test [4].

`O=C(O)C1=CCCN(C2CC[C@@]3(Cc4ccccc4Cc4ccccc43)C2)C1` (some centres not stated): the Ki was more than 2000 nM in test [1], 158 nM at Histamine H1 receptor, more than 2000 nM in test [3] and 3980 nM in test [4].

Turning to `O=C(O)CCNC1CC[C@]2(Cc3ccccc3Cc3ccccc32)C1` (some centres not stated), the Ki was more than 2000 nM in test [1], 10 nM on Histamine H1 receptor, 100 nM in test [3] and 158 nM in test [4]. For the same compound, the IC50 in test [2] was 63100 nM.

Regarding `O=C(O)C1=CCCN(C2CC[C@]3(Cc4ccccc4Cc4ccccc43)C2)C1` (stereo in doubt; 48), the Ki in test [1] is more than 2000 nM; on Histamine H1 receptor it was 20 nM; in test [3], more than 2000 nM; in test [4], more than 2000 nM.

`O=C(O)C1CN(C2CC[C@]3(Cc4ccccc4Cc4ccccc43)C2)CCN1` (some centres not stated): the Ki is 1260 nM in test [1], 100 nM on Histamine H1 receptor, 200 nM in test [3] and 316 nM in test [4].

Regarding `O=C(O)[C@@H]1CCCN(C2CCC3(Cc4ccccc4Oc4ccccc43)C2)C1` (some centres not stated), the inhibition constant Ki in test [1] is more than 2000 nM; at Histamine H1 receptor it was 126 nM; in test [4], 100 nM.

For the compound `O=C(O)C1=CCCN(C2CCC3(C2)C(=O)c2ccccc2Cc2ccccc23)C1` (configuration not stated), the Ki is 79.4 nM on Histamine H1 receptor, more than 2000 nM in test [3] and more than 2000 nM in test [4].

On to `O=C(O)[C@@H]1CCCN(C2CCC3(C2)C(=O)c2cc(Cl)ccc2Oc2ccccc23)C1` (some centres not stated), for which the Ki in test [1] was more than 2000 nM; on Histamine H1 receptor, 200 nM; in test [4], more than 2000 nM.

With `O=C(O)C1CCN(C2CCC3(C2)C(=O)c2cc(Cl)ccc2Oc2ccccc23)CC1` (configuration not stated), the Ki in test [1] is more than 2000 nM; on Histamine H1 receptor, 1000 nM; in test [4] it was 398 nM.

On to `O=C(O)C1(F)CCCN(C2CC[C@]3(Cc4ccccc4Cc4ccccc43)C2)C1` (some centres not stated), for which the Ki is more than 2000 nM in test [1], 794 nM on Histamine H1 receptor, 1580 nM in test [3] and 79.4 nM in test [4].

Regarding `O=C(O)C1=CCCN(C2CCC3(Cc4ccccc4Oc4ccccc43)C2)C1` (configuration not stated), the inhibitory constant (Ki) in test [1] was more than 2000 nM; at Histamine H1 receptor, 100 nM; in test [3], more than 2000 nM; in test [4], 398 nM.

For `O=C(O)CC1CCN(C2CCC3(Cc4ccccc4Cc4ccccc43)C2)CC1` (configuration not stated), the Ki in test [1] is 1000 nM; on Histamine H1 receptor, 25.1 nM; in test [3], more than 2510 nM; in test [4], 631 nM.

For the compound `O=C(O)C1CCN(C2CCC3(C2)C(=O)c2cc(F)ccc2Sc2ccccc23)CC1` (configuration not stated), the inhibitory constant (Ki) in test [1] is more than 2000 nM; on Histamine H1 receptor, 200 nM; in test [3], more than 2000 nM; in test [4], 126 nM.

On to `O=C(O)C1(O)CCN(C2CCC3(Cc4ccccc4Cc4ccccc43)C2)CC1` (configuration not stated), for which the Ki in test [1] is 251 nM; on Histamine H1 receptor, 50.1 nM; in test [3], 126 nM; in test [4] it was 100 nM.

As for `O=C(O)[C@@H]1CCCN(C2CC[C@]3(Cc4ccccc4Cc4ccccc43)C2)C1` (some centres not stated), the Ki in test [1] was 1260 nM; on Histamine H1 receptor it was 20 nM; in test [3], 31.6 nM; in test [4], 63.1 nM.
